Measurements: ChEMBL document CHEMBL1145739, “N-(3-phenylsulfonyl-3-piperidinoyl)-phenylalanine derivatives as potent, selective VLA-4 antagonists” (Bioorg Med Chem Lett, 2003)

How the values were obtained:
[1] = biological target: Integrin alpha-4/beta-1 (Homo sapiens, UniProt P05556+P13612); experiment: Binding affinity towards VLA-4 (alpha4 beta-1) receptor in human Jurkat cells using [125I]VCAM-Ig as radioligand; type: cell-based
[2] = biological target: T1, Integrin alpha-4/beta-7 (Homo sapiens, UniProt P13612+P26010); experiment: Binding affinity towards […] receptor in human RPMI-8866 B-cell line using [125I]MAdCAM-Ig as radioligand
T1 sequence (P13612 whole entry): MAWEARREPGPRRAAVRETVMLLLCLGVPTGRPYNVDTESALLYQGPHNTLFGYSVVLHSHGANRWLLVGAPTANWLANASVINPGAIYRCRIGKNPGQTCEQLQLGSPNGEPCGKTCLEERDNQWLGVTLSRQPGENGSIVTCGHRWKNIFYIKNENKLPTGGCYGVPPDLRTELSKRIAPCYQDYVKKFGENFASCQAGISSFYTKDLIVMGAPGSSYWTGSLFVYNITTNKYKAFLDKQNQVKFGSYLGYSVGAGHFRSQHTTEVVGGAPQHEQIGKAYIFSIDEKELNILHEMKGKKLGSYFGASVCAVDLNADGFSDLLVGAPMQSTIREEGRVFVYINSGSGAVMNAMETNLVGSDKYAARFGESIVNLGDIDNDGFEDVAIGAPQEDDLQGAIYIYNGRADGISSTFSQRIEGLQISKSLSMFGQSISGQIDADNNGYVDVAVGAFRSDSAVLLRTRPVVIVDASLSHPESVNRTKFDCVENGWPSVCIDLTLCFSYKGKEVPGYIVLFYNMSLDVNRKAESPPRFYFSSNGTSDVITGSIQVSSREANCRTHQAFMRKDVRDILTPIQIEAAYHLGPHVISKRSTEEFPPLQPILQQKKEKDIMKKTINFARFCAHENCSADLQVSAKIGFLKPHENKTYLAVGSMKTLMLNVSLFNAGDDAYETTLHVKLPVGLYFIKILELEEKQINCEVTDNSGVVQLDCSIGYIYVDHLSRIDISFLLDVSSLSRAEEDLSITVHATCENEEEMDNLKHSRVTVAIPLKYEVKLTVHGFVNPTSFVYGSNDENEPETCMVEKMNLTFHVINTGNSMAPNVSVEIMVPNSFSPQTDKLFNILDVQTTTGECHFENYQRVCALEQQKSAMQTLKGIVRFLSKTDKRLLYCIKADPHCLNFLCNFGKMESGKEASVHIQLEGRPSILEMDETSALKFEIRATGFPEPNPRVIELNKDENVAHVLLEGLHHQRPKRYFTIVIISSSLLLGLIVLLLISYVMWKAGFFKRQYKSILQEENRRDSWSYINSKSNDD
T1 sequence (P26010 whole entry): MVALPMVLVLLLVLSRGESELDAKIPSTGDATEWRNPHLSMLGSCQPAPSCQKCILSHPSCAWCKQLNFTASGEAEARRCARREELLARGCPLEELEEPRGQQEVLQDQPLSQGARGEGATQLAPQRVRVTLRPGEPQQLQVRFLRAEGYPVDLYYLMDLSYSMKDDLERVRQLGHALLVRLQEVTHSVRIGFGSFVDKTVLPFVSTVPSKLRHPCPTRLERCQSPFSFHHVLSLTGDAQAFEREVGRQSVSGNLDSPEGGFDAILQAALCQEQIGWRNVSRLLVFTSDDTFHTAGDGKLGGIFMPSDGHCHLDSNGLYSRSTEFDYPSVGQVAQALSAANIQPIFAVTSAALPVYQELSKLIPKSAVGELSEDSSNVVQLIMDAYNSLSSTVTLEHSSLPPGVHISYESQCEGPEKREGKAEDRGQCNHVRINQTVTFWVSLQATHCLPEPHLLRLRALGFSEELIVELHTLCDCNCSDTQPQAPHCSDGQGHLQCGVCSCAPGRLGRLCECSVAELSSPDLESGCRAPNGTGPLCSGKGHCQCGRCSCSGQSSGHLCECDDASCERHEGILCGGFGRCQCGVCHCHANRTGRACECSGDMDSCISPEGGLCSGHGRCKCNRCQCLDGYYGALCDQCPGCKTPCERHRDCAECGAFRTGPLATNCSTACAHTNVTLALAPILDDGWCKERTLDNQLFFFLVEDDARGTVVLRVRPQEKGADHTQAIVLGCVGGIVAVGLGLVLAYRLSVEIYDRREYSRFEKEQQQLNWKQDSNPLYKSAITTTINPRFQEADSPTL

[3] = biological target: Integrin alpha-4/beta-7 (Homo sapiens) (UniProt P13612+P26010); experiment: Percent inhibition of [125I]VCAM-Ig binding to human integrin alpha4-beta7 receptor of RPMI-8866 cells at 100 nM; type: cell-based

Sequence of Integrin alpha-4/beta-1 (P05556 whole entry, one chain of several): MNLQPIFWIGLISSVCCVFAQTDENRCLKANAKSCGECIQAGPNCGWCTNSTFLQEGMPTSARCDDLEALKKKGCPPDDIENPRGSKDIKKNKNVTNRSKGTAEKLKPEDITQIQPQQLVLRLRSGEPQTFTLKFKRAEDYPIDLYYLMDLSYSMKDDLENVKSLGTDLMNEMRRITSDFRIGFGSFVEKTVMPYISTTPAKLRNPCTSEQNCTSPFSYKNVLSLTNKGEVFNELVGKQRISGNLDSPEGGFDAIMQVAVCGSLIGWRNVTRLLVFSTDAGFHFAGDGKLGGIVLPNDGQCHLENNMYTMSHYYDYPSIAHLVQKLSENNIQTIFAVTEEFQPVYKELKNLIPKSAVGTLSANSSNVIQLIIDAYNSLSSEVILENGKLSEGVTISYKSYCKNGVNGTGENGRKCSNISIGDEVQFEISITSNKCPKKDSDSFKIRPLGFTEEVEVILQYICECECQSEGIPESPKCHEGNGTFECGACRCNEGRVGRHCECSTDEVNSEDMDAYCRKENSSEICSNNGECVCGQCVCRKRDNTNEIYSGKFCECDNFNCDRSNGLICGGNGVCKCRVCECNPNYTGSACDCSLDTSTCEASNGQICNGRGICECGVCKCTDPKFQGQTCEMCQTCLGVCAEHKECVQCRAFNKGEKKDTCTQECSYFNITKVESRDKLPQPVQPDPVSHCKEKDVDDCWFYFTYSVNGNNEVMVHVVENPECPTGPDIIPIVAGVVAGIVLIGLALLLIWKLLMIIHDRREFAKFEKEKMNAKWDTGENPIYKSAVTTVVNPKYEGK

Compound	IC50 [1] [nM]	IC50 [2] [nM]	inhibition [3] [%]
COc1cccc(OC)c1-c1ccc(C[C@H](NC(=O)C2(S(=O)(=O)CCNCCCN(C)C)CCCNC2)C(=O)O)cc1 (stereo partly specified)	0.37	179	–
COc1cccc(OC)c1-c1ccc(C[C@H](NC(=O)C2(S(=O)(=O)c3ccccc3)CCSCC2)C(=O)O)cc1	0.22	5	–
O=C(O)[C@H](Cc1ccc(-c2ccccc2)cc1)NC(=O)C1(S(=O)(=O)c2cccc3ccccc23)CCCC1	735	–	7
CCS(=O)(=O)C1(C(=O)N[C@@H](Cc2ccc(-c3ccccc3OC)cc2)C(=O)O)CCCC1	0.53	58	–
O=C(O)[C@H](Cc1ccc(-c2ccccc2)cc1)NC(=O)C1(S(=O)(=O)C2CCCCC2)CCCCC1	14	–	24
COc1ccccc1-c1ccc(C[C@H](NC(=O)C2(S(=O)(=O)c3ccccc3)CCOC2)C(=O)O)cc1 (stereo partly specified)	0.77	45	–
COc1ccccc1-c1ccc(C[C@H](NC(=O)C2(S(=O)(=O)c3ccccc3)CCNCC2)C(=O)O)cc1	20	1900	–
COc1cccc(OC)c1-c1ccc(C[C@H](NC(=O)C2(S(C)(=O)=O)CCCNC2)C(=O)O)cc1 (stereo partly specified)	0.19	21	–
O=C(O)[C@H](Cc1ccc(-c2ccccc2)cc1)NC(=O)C1(S(=O)(=O)Cc2ccccc2)CCCC1	81	–	-7
O=C(O)[C@H](Cc1ccc(-c2ccccc2)cc1)NC(=O)C1(S(=O)(=O)C2CCCCC2)CCCC1	7	–	16
COc1cccc(OC)c1-c1ccc(C[C@H](NC(=O)C2(S(=O)(=O)c3ccccc3)CCC2)C(=O)O)cc1	0.17	3.2	–
O=C(O)[C@H](Cc1ccc(-c2ccccc2)cc1)NC(=O)C1(S(=O)(=O)c2ccc(Br)cc2)CCCCC1	44	–	19
COc1ccccc1-c1ccc(C[C@H](NC(=O)C2(S(=O)(=O)c3ccccc3)CCC2)C(=O)O)cc1	1.2	16	–
CCN1CCC(C(=O)N[C@@H](Cc2ccc(-c3ccccc3OC)cc2)C(=O)O)(S(=O)(=O)c2ccccc2)CC1	31	1230	–
CCCCN1CCC(C(=O)N[C@@H](Cc2ccc(-c3ccccc3OC)cc2)C(=O)O)(S(=O)(=O)c2ccccc2)CC1	51	9180	–
O=C(O)[C@H](Cc1ccc(-c2ccccc2)cc1)NC(=O)C1(S(=O)(=O)Cc2ccccc2)CCCCC1	65	–	14
Cc1ccc(S(=O)(=O)C2(C(=O)N[C@@H](Cc3ccc(-c4ccccc4)cc3)C(=O)O)CCCC2)cc1	28	–	2
COc1ccccc1-c1ccc(C[C@H](NC(=O)C2(S(=O)(=O)c3ccccc3)CC[S+]([O-])CC2)C(=O)O)cc1 (stereo partly specified)	4.4	318	–
COc1ccccc1-c1ccc(C[C@H](NC(=O)C2(S(=O)(=O)c3ccccc3)CCS(=O)(=O)CC2)C(=O)O)cc1	1.3	70	–
COc1cccc(OC)c1-c1ccc(C[C@H](NC(=O)C2(S(=O)(=O)CCN3CCOCC3)CCCNC2)C(=O)O)cc1 (stereo partly specified)	0.67	257	–
COc1cccc(OC)c1-c1ccc(C[C@H](NC(=O)C2(S(=O)(=O)c3ccc(F)cc3)CCCC2)C(=O)O)cc1	0.07	5	–
COc1cccc(OC)c1-c1ccc(C[C@H](NC(=O)C2(S(=O)(=O)c3ccccc3N3CCCC3)CCCNC2)C(=O)O)cc1 (stereo partly specified)	0.39	388	–
COc1cccc(OC)c1-c1ccc(C[C@H](NC(=O)C2(S(=O)(=O)c3ccc(N4CCCC4)cc3)CCCNC2)C(=O)O)cc1 (stereo partly specified)	0.36	536	–

Compound	IC50 [1] [nM]	IC50 [2] [nM]	inhibition [3] [%]
COc1ccccc1-c1ccc(C[C@H](NC(=O)C2(S(=O)(=O)c3ccccc3)CCN(C(C)(C)C)CC2)C(=O)O)cc1	56	9220	–
O=C(O)[C@H](Cc1ccc(-c2ccccc2)cc1)NC(=O)C1(S(=O)(=O)c2ccccc2)Cc2ccccc2C1	680	7340	–
COc1cccc(OC)c1-c1ccc(C[C@H](NC(=O)C2(S(=O)(=O)c3cn(C)cn3)CCCNC2)C(=O)O)cc1 (stereo partly specified)	0.46	97	–
COc1cccc(OC)c1-c1ccc(C[C@H](NC(=O)C2(S(=O)(=O)c3cncn3C)CCCNC2)C(=O)O)cc1 (stereo partly specified)	0.14	46	–
COc1ccccc1-c1ccc(C[C@H](NC(=O)C2(S(=O)(=O)c3ccccc3)CCCN(C)C2)C(=O)O)cc1 (stereo partly specified)	6.6	5790	–
COc1cccc(OC)c1-c1ccc(C[C@H](NC(=O)C2(S(=O)(=O)c3ccc(Br)cc3)CCCNC2)C(=O)O)cc1 (stereo partly specified)	0.19	94	–
CCN(CC)S(=O)(=O)C1(C(=O)N[C@@H](Cc2ccc(-c3ccccc3OC)cc2)C(=O)O)CCCC1	0.97	54	–
COc1cccc(OC)c1-c1ccc(C[C@H](NC(=O)C2(S(=O)(=O)c3ccccc3)CCCC2)C(=O)O)cc1	0.11	5	–
COc1cccc(OC)c1-c1ccc(C[C@H](NC(=O)C2(S(=O)(=O)c3ccccc3)CCCCC2)C(=O)O)cc1	0.19	13	–
COc1ccccc1-c1ccc(C[C@H](NC(=O)C2(S(=O)(=O)Nc3ccccc3)CCCC2)C(=O)O)cc1	15	521	–
COc1cccc(OC)c1-c1ccc(C[C@H](NC(=O)C2(S(=O)(=O)Cc3ccccc3)CCCNC2)C(=O)O)cc1 (stereo partly specified)	0.77	436	–
COc1ccccc1-c1ccc(C[C@H](NC(=O)C2(S(=O)(=O)c3ccccc3)CCCNC2)C(=O)O)cc1 (stereo partly specified)	0.48	622	–
CCCCCCCCS(=O)(=O)C1(C(=O)N[C@@H](Cc2ccc(-c3ccccc3)cc2)C(=O)O)CCCC1	150	–	–
COc1ccccc1-c1ccc(C[C@H](NC(=O)C2(S(=O)(=O)c3ccccc3)CCN(C)CC2)C(=O)O)cc1	3	2000	–
COc1cccc(OC)c1-c1ccc(C[C@H](NC(=O)C2(S(=O)(=O)c3cccc(Br)c3)CCCNC2)C(=O)O)cc1 (stereo partly specified)	0.13	83	–
COc1ccccc1-c1ccc(C[C@H](NC(=O)C2(S(=O)(=O)c3ccccc3)CCN(c3ccccc3)CC2)C(=O)O)cc1	23	1260	–
COc1ccccc1-c1ccc(C[C@H](NC(=O)C2(S(=O)(=O)c3ccc(F)cc3)CCCC2)C(=O)O)cc1	0.27	40	–
COc1cccc(OC)c1-c1ccc(C[C@H](NC(=O)C2(S(=O)(=O)c3ccccc3Br)CCCNC2)C(=O)O)cc1 (stereo partly specified)	0.15	96	–
COc1ccccc1-c1ccc(C[C@H](NC(=O)C2(S(=O)(=O)C3CCCC3)CCCC2)C(=O)O)cc1	1.2	147	–
COc1ccccc1-c1ccc(C[C@H](NC(=O)C2(S(=O)(=O)c3ccccc3)CCOCC2)C(=O)O)cc1	0.55	150	–
COc1cccc(OC)c1-c1ccc(C[C@H](NC(=O)C2(S(=O)(=O)c3ccccc3)CCN(C)CC2)C(=O)O)cc1	1.1	466	–
COc1cccc(OC)c1-c1ccc(C[C@H](NC(=O)C2(S(=O)(=O)c3ccccc3)CCOC2)C(=O)O)cc1 (stereo partly specified)	0.1	5.2	–
COc1ccccc1-c1ccc(C[C@H](NC(=O)C2(S(=O)(=O)c3ccccc3)CCSCC2)C(=O)O)cc1	4.1	128	–
